Source: patent US20210317408A1, “METHODS AND COMPOSITIONS FOR GENETICALLY MODIFYING LYMPHOCYTES IN BLOOD OR IN ENRICHED PBMCS” (Exuma Biotech Corp., priority 2018, published 2021)

What was measured:
[1] = tested on: unstimulated PBMCs; experiment: Time course of lentiviral transduction of unstimulated PBMCs, 4 hours to less than 1 minute; format: cell-based, human; conditions: 10 μM during 4 hour transduction, replenished in recovery medium
[2] = tested on: transduced human PBMCs expressing a CAR in CHO, CHO-ROR2 or CHO-AXL tumors; experiment: miRNA library in vivo screen: miRNA blocks recovered from tumors 20 days after dosing transduced PBMCs; set-up: species or system mouse; conditions: conclusion from miRNA constructs recovered from tumors at day 20
Description: 108 gBlocks® Gene Fragments were used to generate a library of constructs each containing 4 miRNA precursors in series in positions 1 (P1), 2 (P2), 3 (P3), and 4 (P4). Each gBlock® was specific to P1, P2, P3, or P4 and contained a miR-155 framework (SEQ ID NO:457), including a 5′arm and a 3′arm as described in Example 17 of WO 2019/055946, in which a unique miRNA fragment targeting an mRNA transcript corresponding to 1 of 27 different genes was used to replace the miR-155 stem-loop precursor. For clarity, the sequences of miRNA fragments differed for each position P1-P4 even among miRNA fragments that targeted mRNA transcripts corresponding to the same gene. The gBlocks® for each position contained a unique 40 bp overlap sequence and the type IIs assembly method was used to assemble combinations of four gBlocks® in their prescribed order, to generate the library. By these methods, a total diversity of 531,441 unique constructs (27 miRNA at P1×27 miRNA at P2×27 miRNA at P3×27 miRNA at P4) was possible.
The library of miRNA constructs was separately cloned into the EF-1 alpha intron A of F1-1-315 and F1-2-314 to generate Library 315 and Library 314, respectively. In addition to the EF-1 alpha promoter, F1-1-315 included a CD8a signal peptide, an anti-ROR2:CD28:CD3z CAR, T2A, and an eTag. […]

## C[C@@H]1CCO[C@H]2Cn3cc(C(=O)NCc4ccc(F)cc4F)c(=O)c(O)c3C(=O)N12 [dolutegravir]
[1]
  inhibition of transduction: inhibition of transduction

## Cc1cc(C)c(Nc2ccnc(Nc3ccc(C#N)cc3)n2)c(C)c1 [dapivirine]
[1]
  inhibition of transduction: inhibition of transduction

B1: SMAD4: miRNA in miR-155 framework directed against SMAD4, SEQ ID NOs:406-409 (nucleic acid)
DNA 1: CGGCACCTGCGCTGCCGTTGGATCGGGGATGAAAGCTGGCGCTGGAGGCTTGCTGAAGGCTGTATGCTGAATTAGGTGTGTATGGTGCAGGTTTTGGCCACTGACTGACCTGCACCACACACCTAATTCAGGACACAAGGCCTGTTACTAGCACTCACATGGAACAAATGGCCCACATTGGTGCCGGATGAAGCTCTTATGTTGCGTCCCATCGCAGGTGCCT
DNA 2: CCTCACCTGCTTGCGTCCCATTCTGGAGGCTTGCTGAAGGCTGTATGCTGAAGTACTTCGTCTAGGAGCTGGTTTTGGCCACTGACTGACCAGCTCCTACGAAGTACTTCAGGACACAAGGCCTGTTACTAGCACTCACATGGAACAAATGGCCGTTGCCTGAGTCTTGGCAGCGAGAGATCACTAACTGCTAAGCAGGTGCTT
DNA 3: TGTCACCTGCACTAACTGCTAACTGGAGGCTTGCTGAAGGCTGTATGCTGTATCCCACGATCTACTCCCCGGTTTTGGCCACTGACTGACCGGGGAGTATCGTGGGATACAGGACACAAGGCCTGTTACTAGCACTCACATGGAACAAATGGCCGTGTTAATTGTCCATGTAGCGAGGCATCCTTATGGCGTGGGCAGGTGTCC
DNA 4: CCTTCACCTGCCTTATGGCGTGGCTGGAGGCTTGCTGAAGGCTGTATGCTGTTATGATGGTAAGTAGCTGGCGTTTTGGCCACTGACTGACGCCAGCTATACCATCATAACAGGACACAAGGCCTGTTACTAGCACTCACATGGAACAAATGGCCGGTGTCCGTTATCGGGGAAGAAGGTCGCGCACATAGCAGGTGTCC
modifications: Synthetic SMAD4 miRNA at P1; Synthetic SMAD4 miRNA at P2; Synthetic SMAD4 miRNA at P3; Synthetic SMAD4 miRNA at P4
[2]
  effect of knocking down the transcript on T cells in the tumor microenvironment: promote the survival and/or proliferation of T cells
